Reference: US8889712B2, “IAP antagonists” (Bristol-Myers Squibb Company, priority 2012, dated 2014)
pIC50: −log10 of the molar value. Where two headings read alike, the source gives them in different places.

What was measured:
XIAP BIR2-3 = biological target: T1, XIAP BIR2-3 (Homo sapiens, UniProt P98170, C202A/C213G); experiment: XIAP-BIR2-3 dimeric SMAC Peptide Homogeneous Time Resolved Fluorescence (HTRF) Assay; assay type: binding
T1 construct: His-BIR2-3 (125-356, C202A/C213G, XIAP)
Method: B. […] Assays were performed in black, flat-bottom, 384-well plates. […] Compounds were dissolved at 3 mM in dimethylsulfoxide (DMSO) and evaluated at eleven serially diluted concentrations. IC50 and Ki values were derived by non-linear regression analysis.

XIAP BIR3 = biological target: T2, XIAP BIR3 (Homo sapiens, UniProt P98170); experiment: XIAP-BIR3/SMAC Homogeneous Time Resolved Fluorescence (HTRF) Assay; assay type: binding
T2 construct: His-BIR3 (241-356, XIAP)
T2 sequence (P98170 241-356): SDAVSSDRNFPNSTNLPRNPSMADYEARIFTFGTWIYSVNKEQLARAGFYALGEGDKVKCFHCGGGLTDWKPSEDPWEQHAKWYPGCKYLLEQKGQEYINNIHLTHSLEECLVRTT
Method: A. XIAP-BIR3/SMAC Homogeneous Time Resolved Fluorescence (HTRF) Assay Assays were performed in black, flat-bottom, 384-well plates. […] The reaction was incubated at room temperature for 60 minutes, following which 10 μl of mouse anti-6×His-terbium labeled Fab (Medarex, Cis-bio) was added to the reaction (40 μl) for an additional 30 minute incubation. […] Compounds were dissolved at 3 mM in dimethylsulfoxide (DMSO) and evaluated at eleven serially diluted concentrations. IC50 and Ki values were derived by non-linear regression analysis.

[1] = 0.5 nM N-His-BIR2-3 (125-356, C202A/C213G, XIAP), 20 nM fluorescein labeled dimeric SMAC peptide, HTRF signal, read-out: XIAP BIR2-3 IC50
[2] = 1 nM N-His-BIR3 (241-356, XIAP), 5 nM fluorescein labeled SMAC peptide, HTRF signal, read-out: XIAP BIR3 IC50

T1 sequence (P98170 125-356 C202A/C213G): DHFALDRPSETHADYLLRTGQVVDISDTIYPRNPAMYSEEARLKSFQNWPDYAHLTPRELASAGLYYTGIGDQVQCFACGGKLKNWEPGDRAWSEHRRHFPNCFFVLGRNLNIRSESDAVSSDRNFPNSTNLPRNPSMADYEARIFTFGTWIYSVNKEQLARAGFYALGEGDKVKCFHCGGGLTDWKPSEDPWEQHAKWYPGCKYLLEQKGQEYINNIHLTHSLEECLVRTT

pIC50 (XIAP BIR2-3; [1]) | pIC50 (XIAP BIR3; [2]) | SMILES | pIC50 (XIAP BIR2-3) | pIC50 (XIAP BIR3)
8.66 | 8.05 | CN[C@@H](C)C(=O)N[C@H](C(=O)N1CC(c2ccc3c(c2)CN(C(=O)[C@@H](NC(=O)[C@H](C)NC)C(C)(C)C)[C@H](C(=O)NC2CCCc4ccccc42)C3)C[C@H]1C(=O)NC(Cc1ccccc1)C(=O)NCc1ccc(OC)cc1)C(C)(C)C (stereo in doubt) [Example 70, (S)-2-((S)-3,3-Dimethyl-2-((S)-2-(methylamino)propanamido)butanoyl)-7-((3S,5S)-1-((S)-3,3-dimethyl-2-((S)-2-(methylamino)propanamido)butanoyl)-5-(((S)-1-((4-methoxybenzyl)amino)-1-oxo-3-phenylpropan-2-yl)carbamoyl)pyrrolidin-3-yl)-N-((R)-1,2,3,4-tetrahydronaphthalen-1-yl)-1,2,3,4-tetrahydroisoquinoline-3-carboxamide] | – | –
8.82 | 8.25 | CN[C@@H](C)C(=O)N[C@H](C(=O)N1CC(c2ccc3c(c2)CN(C(=O)[C@@H](NC(=O)[C@H](C)NC)C(C)(C)C)[C@H](C(=O)NC2CCCc4ccccc42)C3)C[C@H]1C(=O)NC(Cc1ccccc1)C(=O)Nc1ccc(F)cc1)C(C)(C)C (stereo in doubt) [Example 71, (S)-2-((S)-3,3-Dimethyl-2-((S)-2-(methylamino)propanamido)butanoyl)-7-((3S,5S)-1-((S)-3,3-dimethyl-2-((S)-2-(methylamino)propanamido)butanoyl)-5-(((S)-1-((4-fluorophenyl)amino)-1-oxo-3-phenylpropan-2-yl)carbamoyl)pyrrolidin-3-yl)-N-((R)-1,2,3,4-tetrahydronaphthalen-1-yl)-1,2,3,4-tetrahydroisoquinoline-3-carboxamide] | – | –

The next lines start with the compound.

SMILES | pIC50 (XIAP BIR2-3; [1]) | pIC50 (XIAP BIR3; [2]) | pIC50 (XIAP BIR2-3) | pIC50 (XIAP BIR3)
CN[C@@H](C)C(=O)N[C@H](C(=O)N1CC(c2ccc3c(c2)CN(C(=O)[C@@H](NC(=O)[C@H](C)NC)C(C)(C)C)[C@H](C(=O)NC2CCCc4ccccc42)C3)C[C@H]1C(=O)NC(Cc1ccccc1)C(=O)N(C)Cc1ccccc1)C(C)(C)C (stereo in doubt) [Example 72, (S)-7-((3S,5S)-5-(((S)-1-(Benzyl(methyl)amino)-1-oxo-3-phenylpropan-2-yl)carbamoyl)-1-((S)-3,3-dimethyl-2-((S)-2-(methylamino)propanamido)butanoyl)pyrrolidin-3-yl)-2-((S)-3,3-dimethyl-2-((S)-2-(methylamino)propanamido)butanoyl)-N-((R)-1,2,3,4-tetrahydronaphthalen-1-yl)-1,2,3,4-tetrahydroisoquinoline-3-carboxamide] | 8.48 | 7.78 | – | –
CN[C@@H](C)C(=O)N[C@H](C(=O)N1Cc2cc(C3C[C@@H](C(=O)N[C@H](CO)Cc4ccccc4)N(C(=O)[C@@H](NC(=O)[C@H](C)NC)C(C)(C)C)C3)ccc2C[C@H]1C(=O)NC1CCCc2ccccc21)C(C)(C)C (stereo in doubt) [Example 74, (S)-2-((S)-3,3-Dimethyl-2-((S)-2-(methylamino)propanamido)butanoyl)-7-((3S,5S)-1-((S)-3,3-dimethyl-2-((S)-2-(methylamino)propanamido)butanoyl)-5-(((S)-1-hydroxy-3-phenylpropan-2-yl)carbamoyl)pyrrolidin-3-yl)-N-((R)-1,2,3,4-tetrahydronaphthalen-1-yl)-1,2,3,4-tetrahydroisoquinoline-3-carboxamide] | 8.59 | 7.87 | – | –
CN[C@@H](C)C(=O)N[C@H](C(=O)N1Cc2cc(C(=O)N[C@H]3C[C@@H](C(=O)N[C@@H]4CCCc5ccccc54)N(C(=O)[C@@H](NC(=O)[C@H](C)NC)C(C)(C)C)C3)ccc2C[C@H]1C(=O)N[C@@H]1CCCc2ccccc21)C(C)(C)C [Example 1, (S)-2-((S)-3,3-Dimethyl-2-((S)-2-(methylamino)propanamido)butanoyl)-N^7-((3S,5S)-1-((S)-3,3-dimethyl-2-((S)-2-(methylamino)propanamido)butanoyl)-5-(((R)-1,2,3,4-tetrahydronaphthalen-1-yl)carbamoyl)pyrrolidin-3-yl)-N^3—((R)-1,2,3,4-tetrahydronaphthalen-1-yl)-1,2,3,4-tetrahydroisoquinoline-3,7-dicarboxamide] | – | – | 8.52 | 7.96
